Values joined by “and” are separate entries in the source; they are usually repeats but may differ in a detail not shown here. Equal entries are not always repeated.
| SMILES | melting point |
| --- | --- |
| Cc1cccc(-c2ccc(OCC(=O)Nc3cccc(C(=O)O)c3)cc2)c1 [Compound 10, 3-[2-(3’-methyl-biphen-4-yloxy)-acetylamino]-benzoic acid] | 225 to 226 °C |
| CC(C)c1ccc(OC2CCN(c3cccc(C(=O)[O-])c3)C2=O)cc1.[Na+] (stereo not drawn) [Compound 34, 3-[3-(4-Isopropyl-phenoxy)-2-oxo-pyrrolidin-1-yl]-benzoic acid Sodium Salt] | 164 to 165 °C |
| Cc1ccc(C(C)C)cc1OCC(=O)Nc1cccc(C(=O)O)c1 [Compound 45, 3-[2-(5-Isopropyl-2-methyl-phenoxy)-acetylamino]-benzoic acid] | 211 to 213 °C |
| CCOc1ccc(OCC(=O)Nc2cccc(C(=O)O)c2)cc1 [Compound 27, 3-[2-(4-ethoxy-phenoxy)-acetylamino]-benzoic acid] | 191 to 192 °C |
| Cc1cc(OC(C)C(=O)Nc2cccc(C(=O)O)c2)ccc1C(C)C (stereo not drawn) [Compound 47, 3-[2-(4-Isopropyl-3-methyl-phenoxy)-propionylamino]-benzoic acid] | 186 to 187 °C |
| Cc1cc(OC2CCN(c3cccc(C(=O)O)c3)C2=O)cc(C(C)C)c1 (stereo not drawn) [Compound 87, 3-[3-(3-Isopropyl-5-methyl-phenoxy)-2-oxo-pyrrolidin-1-yl]-benzoic acid] | 134 to 138 °C |
| O=C(COc1cccc(Nc2ccccc2)c1)Nc1cccc(C(=O)O)c1 [Compound 66, 3-[2-(3-Phenylamino-phenoxy)-acetylamino]-benzoic acid] | 189 to 191 °C |
| CC(C)(c1ccccc1)c1ccc(OCC(=O)Nc2cccc(C(=O)O)c2)cc1 [Compound 22, 3-{2-[4-(1-methyl-1-phenyl-ethyl)-phenoxy]-acetylamino}-benzoic acid] | 207 to 208 °C |
| O=C(COc1ccc2c(c1)OCO2)Nc1cccc(C(=O)O)c1 [Compound 53, 3-[2-(Benzo[1,3]dioxol-5-yloxy)-acetylamino]-benzoic acid] | 191 to 194 °C |
| CC(C)c1ccccc1SCC(=O)Nc1cccc(C(=O)O)c1 [Compound 3, 3-[2-(2-isopropyl-phenylsulfanyl)-acetylamino]-benzoic acid] | 178 to 179 °C |
| O=C(COc1ccc(NC(=O)c2ccccc2)cc1)Nc1cccc(C(=O)O)c1 [Compound 64, 3-[2-(4-Benzoylamino-phenoxy)-acetylamino]-benzoic acid] | 260 to 262 °C |
| N#Cc1ccc(OCC(=O)Nc2cccc(C(=O)O)c2)cc1 [Compound 62, 3-[2-(4-Cyano-phenoxy)-acetylamino]-benzoic acid] | 210 to 213 °C |
| Cc1cc(OCC(=S)Nc2cccc(C(=O)O)c2)ccc1C(C)C [Compound 8, 3-[2-(4-isopropyl-3-methyl-phenoxy)-thioacetylamino]-benzoic acid] | 174 to 176 °C and 174 to 175 °C |
| O=C(COc1ccc(C2CCCC2)cc1)Nc1cccc(C(=O)O)c1 [Compound 24, 3-[2-(4-cyclopentyl-phenoxy)-acetylamino]-benzoic acid] | 212 to 213 °C |
| Cc1cc(OCC(=O)Nc2cc(C(=O)O)ccc2Cl)ccc1C(C)C [Example 4, 4-CHLORO-3-[2-(4-ISOPROPYL-3-METHYL-PHENOXY)-ACETYLAMINO]-BENZOIC ACID] | 174 to 175 °C |
| CCOC(=O)/C=C/c1ccc(OCC(=O)Nc2cccc(C(=O)O)c2)cc1 [Compound 60, 3-{2-[4-(2-Ethoxycarbonyl-vinyl)-phenoxy]-acetylamino}-benzoic acid] | 202 to 203 °C |
| O=C(COc1ccc(CO)cc1)Nc1cccc(C(=O)O)c1 [Compound 55, 3-[2-(4-Hydroxymethyl-phenoxy)-acetylamino]-benzoic acid] | 209 to 212 °C |
| Cc1ccc(C(=O)O)cc1NC(=O)COc1ccc(C(C)C)c(C)c1 [Compound 48, 3-{2-(4-Isopropyl-3-methyl-phenoxy)-acetylamino]-4-methyl-benzoic acid] | 188 to 189 °C |

Source: patent US7763656B2, “Use of Acetylamino benzoic acid compounds for nonsense suppression and the treatment of disease” (PTC Therapeutics, Inc., priority 2002, dated 2010)
